The supplement of paper PMC10307832

Key:
Assay in all cases: relative viability (nuclei count vs DMSO), 5 days (fraction); higher = more cells survive
[1] = compound: O=S(=O)(c1ccccc1)N(CC(F)(F)F)c1ccc(C(O)(C(F)(F)F)C(F)(F)F)cc1 + CC(=O)Nc1cccc(-n2c(=O)n(C3CC3)c(=O)c3c(Nc4ccc(I)cc4F)n(C)c(=O)c(C)c32)c1 [Trametinib] (partner 0.02 µM)
Procedure, shortened: (§1)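 Lung cancer cell lines, seeded in 1536-well plates, were treated the following day by pin tool with a single drug or with five library-drug doses (not always all listed) in √10 steps on top of a fixed anchor-drug dose. Cells were fixed and nuclei stained in one step after 5 days, and nuclei were counted. Relative viability is the nuclei count for treated wells divided by that for vehicle wells, reported as medians of duplicate plates.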

[2] = compound: O=S(=O)(c1ccccc1)N(CC(F)(F)F)c1ccc(C(O)(C(F)(F)F)C(F)(F)F)cc1 + O=C(c1cc(Cc2n[nH]c(=O)c3ccccc23)ccc1F)N1CCN(C(=O)C2CC2)CC1 [Olaparib] (partner 8 µM)
Procedure, shortened: as §1

[3] = compound: C1=CC2=C(C=CC(=C2)C=C3C(=O)NC(=NCC4=CC=CS4)S3)N=C1 [RO-3306] + C[C@]1(O)C[C@@H](c2nc(-c3ccc4ccc(-c5ccccc5)nc4c3)c3c(N)nccn32)C1 [Linsitinib] (partner 1 µM)
Procedure, shortened: as §1

[4] = compound: C1=CC2=C(C=CC(=C2)C=C3C(=O)NC(=NCC4=CC=CS4)S3)N=C1 [RO-3306] + N=C(N)NC(=N)NCCc1ccccc1 [Phenformin] (partner 250 µM)
Procedure, shortened: as §1

[5] = compound: O=S(=O)(c1ccccc1)N(CC(F)(F)F)c1ccc(C(O)(C(F)(F)F)C(F)(F)F)cc1 + C[C@]1(O)C[C@@H](c2nc(-c3ccc4ccc(-c5ccccc5)nc4c3)c3c(N)nccn32)C1 [Linsitinib] (partner 1 µM)
Procedure, shortened: as §1

Cell Line	relative viability ([1]; first compound 0.8 µM)	relative viability ([1]; first compound 2.53 µM)	relative viability ([1]; first compound 8 µM)	relative viability ([2]; first compound 0.8 µM)	relative viability ([2]; first compound 2.53 µM)	relative viability ([2]; first compound 8 µM)	relative viability ([3]; first compound 0.01 µM)	relative viability ([3]; first compound 0.03162 µM)	relative viability ([3]; first compound 0.1 µM)	relative viability ([3]; first compound 0.3162 µM)	relative viability ([3]; first compound 1 µM)	relative viability ([4]; first compound 0.01 µM)	relative viability ([4]; first compound 0.03162 µM)	relative viability ([4]; first compound 0.1 µM)	relative viability ([4]; first compound 0.3162 µM)	relative viability ([4]; first compound 1 µM)	relative viability ([5]; first compound 0.8 µM)	relative viability ([5]; first compound 2.53 µM)	relative viability ([5]; first compound 8 µM)
LOU-NH91	0.919	0.844	0.914	0.966	0.935	0.913	0.982	0.899	0.982	0.864	0.899	0.808	0.709	0.681	0.649	0.694	0.996	0.92	0.915
LU99A	0.521	0.541	0.464	0.253	0.248	0.392	0.561	0.489	0.515	0.525	0.495	0.973	0.698	0.769	0.869	0.79	0.47	0.524	0.558
LXF-289	0.582	0.532	0.518	1.03	0.91	1.04	1.08	0.913	0.969	0.957	0.961	0.52	0.507	0.506	0.543	0.428	0.929	0.795	0.821
NCI-H522	0.607	0.781	0.689	0.597	0.614	0.714	–	–	–	–	–	0.599	0.615	0.699	0.666	0.733	–	–	–
NCI-H1299	–	–	–	0.961	0.949	0.96	1.1	0.913	1.03	1.12	1.08	–	–	–	–	–	1.11	0.954	0.782
NCI-H1563	–	–	–	–	–	–	1.08	1.14	1.3	1.18	1.16	0.643	0.639	0.641	0.631	0.666	1.2	1.17	1.06
NCI-H1623	–	–	–	–	–	–	–	–	–	–	–	0.61	0.597	0.579	0.58	0.568	–	–	–
NCI-H1648	0.628	0.369	0.44	0.835	0.542	0.602	–	–	–	–	–	–	–	–	–	–	–	–	–
NCI-H1650	0.513	0.645	0.53	0.792	0.678	0.743	–	–	–	–	–	0.419	0.397	0.38	0.358	0.293	–	–	–
NCI-H1703	–	–	–	0.53	0.387	0.446	1.04	0.409	0.598	0.22	0.681	–	–	–	–	–	0.675	0.667	0.805
NCI-H2170	0.973	0.779	0.814	0.666	0.563	0.609	–	–	–	–	–	0.425	0.422	0.396	0.383	0.435	–	–	–
NCI-H2342	0.917	0.854	0.861	0.475	0.504	0.429	–	–	–	–	–	0.591	0.519	0.527	0.569	0.586	–	–	–
SW 900	0.787	0.828	0.607	0.838	0.901	0.706	–	–	–	–	–	0.636	0.539	0.506	0.465	0.502	–	–	–
